Legend:
[1] = tested on: ICR mice; test: Oral glucose loading test in normal mice; format: in vivo; settings: Mus musculus, AUC lowering rate of blood glucose, immediately before to 2 hours after glucose loading, vs solvent control, 10 mg/kg orally, ICR mice fasted overnight, glucose loading after 30 minutes, read-out: Blood glucose level lowering rate (%)
Description: Test Example 2 Oral Glucose Loading Test in Normal Mice
The test compound was dissolved in a solvent (5% Cremophor, 5% aqueous DMSO solution), 10 mg/kg of the test compound was orally administered to ICR mice after fasting overnight, and after 30 minutes, oral glucose loading was carried out. Immediately before the administration of the test compound, immediately before the glucose loading, and 0.25, 0.5, 1, and 2 hours after the glucose loading, blood was collected and blood glucose levels were measured. An AUC lowering rate (%) of the blood glucose levels from immediately before the glucose loading to 2 hours after the glucose loading with respect to that of the solvent control was calculated.

[2] = target: T1, recombinant human liver type GK (GST-hGK2) (Homo sapiens, UniProt P35557); test: Measurement of glucokinase (GK) activation; format: biochemical; settings: 10 min; test compound final concentration of 10 μM; 5 mM glucose; 27° C.; relative to DMSO
T1 construct: made in house; host or cells: E. coli BL21
T1 sequence (P35557 1-466 isoform P35557-2): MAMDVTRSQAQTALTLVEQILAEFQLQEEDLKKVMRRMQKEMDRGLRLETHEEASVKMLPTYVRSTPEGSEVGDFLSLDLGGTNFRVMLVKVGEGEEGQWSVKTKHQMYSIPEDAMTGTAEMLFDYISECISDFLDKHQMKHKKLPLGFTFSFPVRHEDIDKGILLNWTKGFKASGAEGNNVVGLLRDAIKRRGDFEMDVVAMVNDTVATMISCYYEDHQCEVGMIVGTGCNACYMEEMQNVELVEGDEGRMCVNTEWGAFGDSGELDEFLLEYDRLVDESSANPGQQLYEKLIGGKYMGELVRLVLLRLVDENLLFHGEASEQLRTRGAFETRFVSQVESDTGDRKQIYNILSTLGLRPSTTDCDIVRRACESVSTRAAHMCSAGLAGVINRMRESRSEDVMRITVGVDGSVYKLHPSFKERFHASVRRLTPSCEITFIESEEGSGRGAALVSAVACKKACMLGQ
Description: Test Example 1 Measurement of Glucokinase (GK) Activation
The present test was carried out in accordance with the method described in Science 301: 370-373, 2003 with partial modification, and is summarized as below.
First, cloning of GK (GenBank No. AK122876) was carried out. PCR was carried out using 5′-[…]-3′ (SEQ ID NO: 1) and 5′-[…]-3′ (SEQ ID NO: 2) as primers, and pME18S-FL3-Glucokinase isoform 2 as a template. The resulting reaction product was TA-cloned into a pGEM-T easy vector, and then digested with EcoRI and XhoI, and the fragment was ligated to a pGEX-5X-1 vector digested in the same manner. Using this plasmid DNA (pGEX-human Glucokinase 2), a recombinant human liver type GK (GST-hGK2) fused with GST (Glutathione S-transferase) was expressed in E. coli (strain BL21), and purified by Glutathione Sepharose.
The reaction of GK was carried out at 27° C. on a 96-well plate. First, 1 μL of a test compound diluted with dimethylsulfoxide (DMSO) (final concentration of 10 μM) was added to a 89 μL of an enzyme mixed liquid (25 mM HEPES pH 7.4, 25 mM KCl, 2 mM MgCl2, 1 mM ATP, 0.1% BSA, 1 mM DTT, 1 mM NADP (nicotinamide adenine dinucleotide phosphate), 2.5 U/mL glucose-6-phosphate dehydrogenase, GST-hGK2 adjusted to ΔODCont as described later to be about 0.05 to 0.10, all of which are final concentrations). Subsequently, 10 μL of a substrate solution (final concentration of 5 mM glucose) was added thereto to initiate the reaction. In order to quantify a final product NADPH, an absorbance at a wavelength of 340 nm was measured, and the GK activation (%) of the test compound was calculated from the increase (DOD) in the absorbance during the first 10 minutes after the initiation of the reaction, using the following formula.
GK activation (%)=[(ΔODTest)−(ΔODCont)]/(ΔODCont)×100
ΔODTest: ΔOD at the test compound
Further, Ex indicates Example compound Number.

SMILES | inhibition in vivo at 10 mg/kg [1] | activation at 10 µM [2]
COC[C@H](C)Oc1cc(Oc2ccc(-c3nc(C(N)=O)no3)nc2)cc(C(=O)Nc2ccn(C)n2)c1 [Ex 1] | 37% | 295%
CNC(=O)c1noc(-c2ccc(Oc3cc(OC(C)C)cc(C(=O)Nc4ccn(C)n4)c3)cn2)n1 [Ex 2] | 59% | 338%
CNC(=O)c1nnc(-c2ccc(Oc3cc(OC(C)C)cc(C(=O)Nc4ccn(C)n4)c3)cn2)o1 [Ex 3] | 64% | 380%
CC(C)Oc1cc(Oc2ccc(-c3nc(C(N)=O)no3)nc2)cc(C(=O)Nc2ccn(C)n2)c1 [Ex 9] | 46% | 319%
CC(C)Oc1cc(Oc2ccc(-c3nc(C(=O)N(C)C)no3)nc2)cc(C(=O)Nc2ccn(C)n2)c1 [Ex 10] | 61% | 380%
CC(C)Oc1cc(Oc2cnc(N(CC3CC3)C(=O)C3CCOCC3)cn2)cc(C(=O)Nc2ccn(C)n2)c1 [Ex 23] | 52% | 347%
C[C@@H](CO)Oc1cc(Oc2cnc(N(CC3CC3)C(=O)C3CCOCC3)cn2)cc(C(=O)Nc2ccn(C)n2)c1 [Ex 24] | 49% | 269%
COC[C@H](C)Oc1cc(Oc2cnc(N(CC3CC3)C(=O)CN(C)C)cn2)cc(C(=O)Nc2ccn(C)n2)c1 [Ex 29] | 49% | 287%
CC(C)Oc1cc(Oc2cnc(-c3noc(C(=O)N(C)C)n3)cn2)cc(C(=O)Nc2ccn(C)n2)c1 [Example 67] | 57% | 498%
CC(C)Oc1cc(Oc2cnc(N(CC3CC3)C(=O)N3CCNC3=O)cn2)cc(C(=O)Nc2ccn(C)n2)c1 [Example 74] | 45% | 298%
CC(C)Oc1cc(Oc2cnc(-c3nnc(C(=O)N(C)C)o3)cn2)cc(C(=O)Nc2ccn(C)n2)c1 [Example 98] | 54% | 498%
CC(=O)N(CC1CC1)c1cc(Oc2cnc(N(CC3CC3)C(=O)C3CCOCC3)cn2)cc(C(=O)Nc2ccn(C)n2)c1 [Example 101] | 48% | 345%
COCCOCC(=O)N(CC1CC1)c1cnc(Oc2cc(OC(C)C)cc(C(=O)Nc3ccn(C)n3)c2)cn1 [Example 119] | 40% | 376%
COC[C@H](C)Oc1cc(Oc2ccc(-c3noc(C(=O)N(C)C)n3)nc2)cc(C(=O)Nc2ccn(C)n2)c1 [Example 130] | 65% | 502%
CNC(=O)c1noc(-c2cnc(Oc3cc(OC(C)C)cc(C(=O)Nc4ccn(C)n4)c3)cn2)n1 [Example 138] | 61% | 316%
COCCOCC(=O)N(CC1CC1)c1cnc(Oc2cc(O[C@@H](C)CO)cc(C(=O)Nc3ccn(C)n3)c2)cn1 [Example 156, 3-[(5-{(cyclopropylmethyl)[(2-methoxyethoxy)acetyl]amino}pyrazin-2-yl)oxy]-5-{[(2S)-1-hydroxypropan-2-yl]oxy}-N-(1-methyl-1H-pyrazol-3-yl)benzamide] | 18% | 237%
C[C@@H](CO)Oc1cc(Oc2cnc(N(CC3CC3)C(=O)[C@H]3CCCO3)cn2)cc(C(=O)Nc2ccn(C)n2)c1 [Example 158] | 29% | 237%
C[C@@H](CO)Oc1cc(Oc2ccc(-c3nc(C(N)=O)no3)nc2)cc(C(=O)Nc2ccn(C)n2)c1 [Example 162] | 25% | 306%
